What was measured:
[1] = test system: HIV LTR luciferase (Tat/AcTat transactivation); test: Nuclear microinjection of synthetic Tat or AcTat with HIV LTR luciferase reporter into HeLa cells; type: cell-based; conditions: for basal HIV promoter activity / transcriptional activity of AcTat (transactivation of the HIV promoter): TSA 400 nM or nicotinamide 5 mM for four hours, siRNA 48 hours before microinjection
Method: Subconfluent MEFs (70%) were grown on Cellocate coverslips (Eppendorf, Westbury, N.Y.), and nuclear microinjections were performed at room temperature with an automated injection system (Eppendorf Micromanipulator 5171 together with Eppendorf Transjector 5246). Samples were prepared as a 20 μl injection mix containing the HIV LTR luciferase reporter or 5xUAS luciferase (each 100 ng/μl), RSV-Tat (10 ng/μl) or Ga14-VP16 (50 ng/μl), CMV-CyclinT1 (100 ng/μl), CMV-SIRT1 (100 or 300 ng/μl) together with CMV-GFP (50 ng/μl) in sterile water. Six hours after microinjection, cells were examined under a Nikon Eclipse TE300 inverted fluorescent microscope to determine the number of GFP-positive cells, washed in cold phosphate buffer, and stored at −70° C. for luciferase assays (Promega). In HeLa cells, synthetic Tat or AcTat proteins (each 30 or 100 ng/μl) were co-injected with the wildtype or mutant HIV LTR luciferase reporters (each 100 ng/μl) together with CMV-GFP (50 ng/μl) and harvested four hours after injection. Cells were treated immediately after injection with 5,6-dichlorobenzimidazole riboside (DRB; 10 or 50 μM; Sigma), TSA (400 nM), or nicotinamide (5 mM). Microinjections in siRNA-treated cells were performed 48 hours after siRNA transfection.

SIRT1 = target: T1, SIRT1 (Homo sapiens, UniProt Q96EB6); test: In vitro Tat deacetylation assay with immunoprecipitated SIRT1; type: biochemical; conditions: immunoprecipitated SIRT1, AcTat, NAD+; western blot α-AcTat; nicotinamide 5 mM, TSA 400 nM
T1 construct: made in house; host or cells: 293 cells (HEK 293), transient transfection, anti-FLAG M2 agarose immunoprecipitate
T1 sequence (Q96EB6 1-747): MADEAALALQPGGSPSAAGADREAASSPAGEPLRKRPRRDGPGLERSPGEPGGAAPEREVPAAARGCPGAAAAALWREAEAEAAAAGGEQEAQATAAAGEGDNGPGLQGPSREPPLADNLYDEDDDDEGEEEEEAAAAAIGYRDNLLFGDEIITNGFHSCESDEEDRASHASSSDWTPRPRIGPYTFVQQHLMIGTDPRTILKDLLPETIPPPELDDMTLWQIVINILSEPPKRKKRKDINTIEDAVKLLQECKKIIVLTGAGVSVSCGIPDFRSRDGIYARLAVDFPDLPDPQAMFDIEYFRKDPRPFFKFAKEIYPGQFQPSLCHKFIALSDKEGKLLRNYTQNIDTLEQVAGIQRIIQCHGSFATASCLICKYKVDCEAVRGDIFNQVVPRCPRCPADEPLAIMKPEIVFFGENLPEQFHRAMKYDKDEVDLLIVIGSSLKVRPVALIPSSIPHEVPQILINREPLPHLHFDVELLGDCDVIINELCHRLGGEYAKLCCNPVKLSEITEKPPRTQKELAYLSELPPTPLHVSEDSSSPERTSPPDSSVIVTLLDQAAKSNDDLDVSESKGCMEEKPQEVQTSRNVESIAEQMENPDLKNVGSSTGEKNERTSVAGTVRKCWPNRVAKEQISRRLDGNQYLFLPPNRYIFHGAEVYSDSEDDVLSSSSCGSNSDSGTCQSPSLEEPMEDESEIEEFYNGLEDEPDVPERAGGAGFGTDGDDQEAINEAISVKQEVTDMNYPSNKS
Method: Human SIRT1-7 FLAG-tagged plasmids were transfected in 293 cells with lipofectamine reagent (Invitrogen). Cells were lysed 24 hours after transfection with lysis buffer (50 mM Tris-Hcl, pH 7.5, 0.5 mM EDTA, 0.5% NP40, 150 mM NaCl) in the presence of protease inhibitors (Roche Molecular Biochemicals, Indianapolis, Ind.). Equal amounts of total proteins were immunoprecipitated with α-FLAG (anti-FLAG antibody) coupled to M2 agarose beads (Sigma, St Louis, Mo.), for 2 hours at 4° C. Immunoprecipitated material was washed twice with immunoprecipitation (IP) buffer and one time with SIRT deacetylation buffer (50 mM Tris-HCl pH 9, 4 mM MgCl2, 0.2 mM DTT). The beads were resuspended in 100 μl SIRT deacetylation buffer containing 1 μg synthetic Tat (72 amino acids) carrying an N-terminal biotin label and an acetyl group at position 50. Kaehlcke et al. (2003), supra. Reactions containing TSA (400 nM, WACO Bioproducts, Richmond, Va.) or nicotinamide (5 mM, Sigma) were preincubated for 10 min at room temperature. […] Reactions were stopped by the addition of SDS loading buffer, boiled, and after brief centrifugation, analyzed by western blotting with rabbit α-AcTat antibodies (Kaehlcke et al. (2003), supra) or horseradish peroxidase-conjugated streptavidin (Jackson Immunoresearch Laboratories, West Grove, Pa.). SIRT1-7 proteins were detected with polyclonal α-FLAG antibodies (Sigma).

[2] = test system: HIVNL4-3 containing the GFP open reading frame in place of nef; test: Single-cycle HIV infection of Jurkat T cells, GFP expression by flow cytometry; type: cell-based; conditions: 1 μM, 36 hours after overnight infection
Method: (§1) The HIV molecular clone (HIV-R7/E^−/GFP) containing the GFP open reading frame in place of the nef gene and a frameshift mutation in the env gene as well as the method to generate pseudotyped viral particles with VSV-G was previously described. Jordan et al. (2003) Embo J 22: 1868-1877. The number of infective particles per ml was established by infecting 3×10^5 Jurkat cells with different amounts of viral suspension. The titer of the viral stock was measured by flow cytometry analysis of GFP expression 48 hours after infection. The pHR′-EF-1α/GFP construct is a minimal nonreplicative HIV-1 genome containing a heterologous promoter (EF-1α) driving GFP expression. Naldini et al. (1996) Science 272: 263-267. […]. Zufferey et al. (1997) Nat Biotechnol 15: 871-875. All vectors for the production of HIV-based lentiviral vectors were provided by D. Trono, University of Geneva, Switzerland. Jurkat T cells were incubated overnight with HIV-R7/E^−/GFP or pHR′-EF-1α/GFP viral particles at a theoretical multiplicity of infection (m.o.i.) of 0.5 in 24-well plates. […] Viral infection was monitored 36 hours later by flow cytometry analysis using a Calibur FACScan (Becton Dickinson).

[3] = test system: EF-1α promoter GFP expression; test: HIV-based lentiviral vector with EF-1α promoter driving GFP in Jurkat T cells; type: cell-based; conditions: 1 μM, 36 hours
Method: as §1

[4] = test system: Tat-dependent HIV transcription (HIV LTR luciferase); test: Tat transactivation of HIV LTR luciferase reporter in transfected HeLa cells; type: cell-based; conditions: ~1 μM, 8 hours
Method: (§2) In co-transfection experiments, human CMV-SIRT1 or CMV-SIRT1H363Y (600 ng) was co-transfected into HeLa cells plated in six-well plates with the HIV LTR luciferase reporter (200 ng) or the LTRΔNF-kB-luciferase reporter (200 ng) and increasing amounts of RSV-Tat (0 ng, 2 ng, 20 ng, and 200 ng) using the lipofectamine reagents (Invitrogen). In the control experiment, RSV-Tat was replaced by RSV luciferase (200 ng), and the HIV LTR luciferase construct was replaced by the HIV LTR CAT reporter. […] The RSV-luciferase construct was used as described above. […] Cells were harvested 8 hr later and processed for luciferase assays.

RSV LTR = test: RSV luciferase control reporter in transfected HeLa cells; type: cell-based, Rous sarcoma virus; conditions: 1 μM
Method: as §2

p53 = p53 acetylation; type: cell-based; conditions: 1 μM

## OC[C@H]1O[C@@H](n2cnc3cc(Cl)c(Cl)cc32)[C@H](O)[C@@H]1O [DRB, 5,6-dichlorobenzimidazole riboside]
[1]; DRB 10 or 50 μM, four hours
  transactivation by both Tat proteins (Tat and AcTat): inhibited in a dose-dependent manner

## CC(/C=C/C(=O)NO)=C\[C@@H](C)C(=O)c1ccc(N(C)C)cc1 [TSA]
[1]
  basal HIV promoter activity: enhanced
  transcriptional activity of AcTat (transactivation of the HIV promoter): enhanced
SIRT1
  SIRT1-mediated deacetylation of Tat: no effect

## NC(=O)c1cccnc1 [nicotinamide]
[1]
  basal HIV promoter activity: stimulating
  transcriptional activity of AcTat (transactivation of the HIV promoter): blocked
SIRT1
  SIRT1-mediated deacetylation of Tat: completely inhibited

## O=C1Oc2ccc3cc(Br)ccc3c2CC1c1ccccc1 (stereo not drawn) [HR73]
[2]
  reduction of HIV gene expression as measured by GFP expression: 5 fold
[3]
  GFP expression from the EF-1α promoter: not affected
[4]
  suppression of Tat-dependent HIV transcription: 3 fold
RSV LTR
  activity of the RSV LTR: did not suppress
p53
  acetylation of p53: induced hyperacetylation
